Measured values reported in ChEMBL document CHEMBL4196076, “An access to a library of novel triterpene derivatives with a promising pharmacological potential by Ugi and Passerini multicomponent reactions” (Eur J Med Chem, 2018).

Each compound was assayed on HT-29 (assay: Cytotoxicity against human HT-29 cells after 96 hrs by sulforhodamine-B assay). Settings: HT-29, 96 h.
Assay type: functional, cell-based
In the case of `CCCCNC(=O)CN(Cc1ccoc1)C(=O)[C@]12CCC(C)(C)C[C@H]1C1=CC[C@@H]3[C@@]4(C)CC[C@H](OC(C)=O)C(C)(C)[C@@H]4CC[C@@]3(C)[C@]1(C)CC2`, the EC50 is reported as > 30 µM. `C=CCN(CC(=O)NC(C)(C)C)C(=O)[C@]12CCC(C)(C)C[C@H]1C1=CC[C@@H]3[C@@]4(C)CC[C@H](OC(C)=O)C(C)(C)[C@@H]4CC[C@@]3(C)[C@]1(C)CC2` was tested, and the EC50 was > 30 µM. `CC(=O)O[C@@H]1C[C@]2(C)[C@H]3CC=C4[C@@H]5CC(C)(C)CC[C@]5(C(=O)N(CC(=O)NCc5ccccc5)Cc5ccoc5)CC[C@@]4(C)[C@]3(C)CC[C@H]2C(C)(C)[C@H]1OC(C)=O` gave an EC50 of 9.9 µM. `CC1(C)CC[C@]2(C(=O)N(CC(=O)NCc3ccccc3)Cc3ccoc3)CC[C@]3(C)C(=CC[C@@H]4[C@@]5(C)CC[C@H](O)C(C)(C)[C@@H]5CC[C@]43C)[C@@H]2C1` was tested, and the EC50 was > 30 µM. In the case of `C=CCN(CC(=O)NCc1ccccc1)C(=O)[C@]12CCC(C)(C)C[C@H]1C1=CC[C@@H]3[C@@]4(C)CC[C@H](OC(C)=O)C(C)(C)[C@@H]4CC[C@@]3(C)[C@]1(C)CC2`, the EC50 is reported as > 30 µM.

These compounds were tested on MCF7 (assay: Cytotoxicity against human MCF7 cells after 96 hrs by sulforhodamine-B assay). Settings: MCF7, 96 h.
Assay type: functional, cell-based
Compound `CCCCNC(=O)CN(Cc1ccoc1)C(=O)[C@]12CCC(C)(C)C[C@H]1C1=CC[C@@H]3[C@@]4(C)CC[C@H](OC(C)=O)C(C)(C)[C@@H]4CC[C@@]3(C)[C@]1(C)CC2` has an EC50 of 13.9 µM. With `C=CCN(CC(=O)NC(C)(C)C)C(=O)[C@]12CCC(C)(C)C[C@H]1C1=CC[C@@H]3[C@@]4(C)CC[C@H](OC(C)=O)C(C)(C)[C@@H]4CC[C@@]3(C)[C@]1(C)CC2` the EC50 was 12.1 µM. With `CC(=O)O[C@@H]1C[C@]2(C)[C@H]3CC=C4[C@@H]5CC(C)(C)CC[C@]5(C(=O)N(CC(=O)NCc5ccccc5)Cc5ccoc5)CC[C@@]4(C)[C@]3(C)CC[C@H]2C(C)(C)[C@H]1OC(C)=O` the EC50 was 3.4 µM. `CC1(C)CC[C@]2(C(=O)N(CC(=O)NCc3ccccc3)Cc3ccoc3)CC[C@]3(C)C(=CC[C@@H]4[C@@]5(C)CC[C@H](O)C(C)(C)[C@@H]5CC[C@]43C)[C@@H]2C1` was tested, and the EC50 was 12.6 µM. In the case of `C=CCN(CC(=O)NCc1ccccc1)C(=O)[C@]12CCC(C)(C)C[C@H]1C1=CC[C@@H]3[C@@]4(C)CC[C@H](OC(C)=O)C(C)(C)[C@@H]4CC[C@@]3(C)[C@]1(C)CC2`, the EC50 is reported as 19.2 µM.

The compounds below were run on 518A2 (assay: Cytotoxicity against human 518A2 cells after 96 hrs by sulforhodamine-B assay). Settings: 518A2, 96 h.
Assay type: functional, cell-based
For `CCCCNC(=O)CN(Cc1ccoc1)C(=O)[C@]12CCC(C)(C)C[C@H]1C1=CC[C@@H]3[C@@]4(C)CC[C@H](OC(C)=O)C(C)(C)[C@@H]4CC[C@@]3(C)[C@]1(C)CC2`, the EC50 was 11.3 µM. `C=CCN(CC(=O)NC(C)(C)C)C(=O)[C@]12CCC(C)(C)C[C@H]1C1=CC[C@@H]3[C@@]4(C)CC[C@H](OC(C)=O)C(C)(C)[C@@H]4CC[C@@]3(C)[C@]1(C)CC2` gave an EC50 of 22.5 µM. `CC(=O)O[C@@H]1C[C@]2(C)[C@H]3CC=C4[C@@H]5CC(C)(C)CC[C@]5(C(=O)N(CC(=O)NCc5ccccc5)Cc5ccoc5)CC[C@@]4(C)[C@]3(C)CC[C@H]2C(C)(C)[C@H]1OC(C)=O` was tested, and the EC50 was 13.1 µM. For `CC1(C)CC[C@]2(C(=O)N(CC(=O)NCc3ccccc3)Cc3ccoc3)CC[C@]3(C)C(=CC[C@@H]4[C@@]5(C)CC[C@H](O)C(C)(C)[C@@H]5CC[C@]43C)[C@@H]2C1`, the EC50 was > 30 µM. Compound `C=CCN(CC(=O)NCc1ccccc1)C(=O)[C@]12CCC(C)(C)C[C@H]1C1=CC[C@@H]3[C@@]4(C)CC[C@H](OC(C)=O)C(C)(C)[C@@H]4CC[C@@]3(C)[C@]1(C)CC2` has an EC50 of 18.9 µM.

What follows are compounds tested on A2780 (assay: Cytotoxicity against human A2780 cells after 96 hrs by sulforhodamine-B assay). Settings: A2780, 96 h.
Assay type: functional, cell-based
Work on `CCCCNC(=O)CN(Cc1ccoc1)C(=O)[C@]12CCC(C)(C)C[C@H]1C1=CC[C@@H]3[C@@]4(C)CC[C@H](OC(C)=O)C(C)(C)[C@@H]4CC[C@@]3(C)[C@]1(C)CC2` yielded an EC50 of 5.6 µM. With `C=CCN(CC(=O)NC(C)(C)C)C(=O)[C@]12CCC(C)(C)C[C@H]1C1=CC[C@@H]3[C@@]4(C)CC[C@H](OC(C)=O)C(C)(C)[C@@H]4CC[C@@]3(C)[C@]1(C)CC2` the EC50 was 12.5 µM. For `CC(=O)O[C@@H]1C[C@]2(C)[C@H]3CC=C4[C@@H]5CC(C)(C)CC[C@]5(C(=O)N(CC(=O)NCc5ccccc5)Cc5ccoc5)CC[C@@]4(C)[C@]3(C)CC[C@H]2C(C)(C)[C@H]1OC(C)=O`, the EC50 was 2.1 µM. `CC1(C)CC[C@]2(C(=O)N(CC(=O)NCc3ccccc3)Cc3ccoc3)CC[C@]3(C)C(=CC[C@@H]4[C@@]5(C)CC[C@H](O)C(C)(C)[C@@H]5CC[C@]43C)[C@@H]2C1` showed an EC50 of 13.2 µM. Compound `C=CCN(CC(=O)NCc1ccccc1)C(=O)[C@]12CCC(C)(C)C[C@H]1C1=CC[C@@H]3[C@@]4(C)CC[C@H](OC(C)=O)C(C)(C)[C@@H]4CC[C@@]3(C)[C@]1(C)CC2` has an EC50 of 6 µM.

Each compound was assayed on A549 (assay: Cytotoxicity against human A549 cells after 96 hrs by sulforhodamine-B assay). Settings: A549, 96 h.
Assay type: functional, cell-based
`CCCCNC(=O)CN(Cc1ccoc1)C(=O)[C@]12CCC(C)(C)C[C@H]1C1=CC[C@@H]3[C@@]4(C)CC[C@H](OC(C)=O)C(C)(C)[C@@H]4CC[C@@]3(C)[C@]1(C)CC2` gave an EC50 of 16.2 µM. Compound `C=CCN(CC(=O)NC(C)(C)C)C(=O)[C@]12CCC(C)(C)C[C@H]1C1=CC[C@@H]3[C@@]4(C)CC[C@H](OC(C)=O)C(C)(C)[C@@H]4CC[C@@]3(C)[C@]1(C)CC2` has an EC50 of 24.2 µM. `CC(=O)O[C@@H]1C[C@]2(C)[C@H]3CC=C4[C@@H]5CC(C)(C)CC[C@]5(C(=O)N(CC(=O)NCc5ccccc5)Cc5ccoc5)CC[C@@]4(C)[C@]3(C)CC[C@H]2C(C)(C)[C@H]1OC(C)=O` gave an EC50 of 5.4 µM. In the case of `CC1(C)CC[C@]2(C(=O)N(CC(=O)NCc3ccccc3)Cc3ccoc3)CC[C@]3(C)C(=CC[C@@H]4[C@@]5(C)CC[C@H](O)C(C)(C)[C@@H]5CC[C@]43C)[C@@H]2C1`, the EC50 is reported as > 30 µM.

These compounds were tested on FaDu (assay: Cytotoxicity against human FADU cells after 96 hrs by sulforhodamine-B assay). Settings: not given.
Assay type: functional, cell-based
Compound `CCCCNC(=O)CN(Cc1ccoc1)C(=O)[C@]12CCC(C)(C)C[C@H]1C1=CC[C@@H]3[C@@]4(C)CC[C@H](OC(C)=O)C(C)(C)[C@@H]4CC[C@@]3(C)[C@]1(C)CC2` has an EC50 of 17.9 µM. For `C=CCN(CC(=O)NC(C)(C)C)C(=O)[C@]12CCC(C)(C)C[C@H]1C1=CC[C@@H]3[C@@]4(C)CC[C@H](OC(C)=O)C(C)(C)[C@@H]4CC[C@@]3(C)[C@]1(C)CC2`, the EC50 was > 30 µM. In the case of `CC(=O)O[C@@H]1C[C@]2(C)[C@H]3CC=C4[C@@H]5CC(C)(C)CC[C@]5(C(=O)N(CC(=O)NCc5ccccc5)Cc5ccoc5)CC[C@@]4(C)[C@]3(C)CC[C@H]2C(C)(C)[C@H]1OC(C)=O`, the EC50 is reported as 14.1 µM. In the case of `CC1(C)CC[C@]2(C(=O)N(CC(=O)NCc3ccccc3)Cc3ccoc3)CC[C@]3(C)C(=CC[C@@H]4[C@@]5(C)CC[C@H](O)C(C)(C)[C@@H]5CC[C@]43C)[C@@H]2C1`, the EC50 is reported as > 30 µM. Work on `C=CCN(CC(=O)NCc1ccccc1)C(=O)[C@]12CCC(C)(C)C[C@H]1C1=CC[C@@H]3[C@@]4(C)CC[C@H](OC(C)=O)C(C)(C)[C@@H]4CC[C@@]3(C)[C@]1(C)CC2` yielded an EC50 of 15.5 µM.

The compounds below were run on NIH3T3 (assay: Cytotoxicity against mouse NIH/3T3 cells after 96 hrs by sulforhodamine-B assay). Settings: NIH3T3, 96 h.
Assay type: cell-based
For `CCCCNC(=O)CN(Cc1ccoc1)C(=O)[C@]12CCC(C)(C)C[C@H]1C1=CC[C@@H]3[C@@]4(C)CC[C@H](OC(C)=O)C(C)(C)[C@@H]4CC[C@@]3(C)[C@]1(C)CC2`, the EC50 was > 30 µM. With `C=CCN(CC(=O)NC(C)(C)C)C(=O)[C@]12CCC(C)(C)C[C@H]1C1=CC[C@@H]3[C@@]4(C)CC[C@H](OC(C)=O)C(C)(C)[C@@H]4CC[C@@]3(C)[C@]1(C)CC2` the EC50 was > 30 µM. In the case of `CC(=O)O[C@@H]1C[C@]2(C)[C@H]3CC=C4[C@@H]5CC(C)(C)CC[C@]5(C(=O)N(CC(=O)NCc5ccccc5)Cc5ccoc5)CC[C@@]4(C)[C@]3(C)CC[C@H]2C(C)(C)[C@H]1OC(C)=O`, the EC50 is reported as 6.5 µM. In the case of `CC1(C)CC[C@]2(C(=O)N(CC(=O)NCc3ccccc3)Cc3ccoc3)CC[C@]3(C)C(=CC[C@@H]4[C@@]5(C)CC[C@H](O)C(C)(C)[C@@H]5CC[C@]43C)[C@@H]2C1`, the EC50 is reported as > 30 µM. `C=CCN(CC(=O)NCc1ccccc1)C(=O)[C@]12CCC(C)(C)C[C@H]1C1=CC[C@@H]3[C@@]4(C)CC[C@H](OC(C)=O)C(C)(C)[C@@H]4CC[C@@]3(C)[C@]1(C)CC2` was tested, and the EC50 was > 30 µM.
